Assay results taken from ChEMBL document CHEMBL5576094, “A Diterpenoid of the Medicinal Plant Andrographis paniculata Targets Cutaneous TRPV3 Channel and Relieves Itch” (J Nat Prod, 2024).
Values belong to the molecule of their own block, whether it stands above or below them. Activity calls are given as the source filed them. The rule behind the calls is not given here.

Legend:
[1] = target: T1, Transient receptor potential cation channel subfamily V member 3 (Homo sapiens) (UniProt Q8NET8); experiment: Inhibition of human TRPV3 expressed in CHO cells assessed as reduction in 2-APB-induced intracellular calcium flux at 20 uM measured for 60 mins by Fluo-4-AM dye based fluorescence assay; assay type: cell-based
T1 sequence (whole entry): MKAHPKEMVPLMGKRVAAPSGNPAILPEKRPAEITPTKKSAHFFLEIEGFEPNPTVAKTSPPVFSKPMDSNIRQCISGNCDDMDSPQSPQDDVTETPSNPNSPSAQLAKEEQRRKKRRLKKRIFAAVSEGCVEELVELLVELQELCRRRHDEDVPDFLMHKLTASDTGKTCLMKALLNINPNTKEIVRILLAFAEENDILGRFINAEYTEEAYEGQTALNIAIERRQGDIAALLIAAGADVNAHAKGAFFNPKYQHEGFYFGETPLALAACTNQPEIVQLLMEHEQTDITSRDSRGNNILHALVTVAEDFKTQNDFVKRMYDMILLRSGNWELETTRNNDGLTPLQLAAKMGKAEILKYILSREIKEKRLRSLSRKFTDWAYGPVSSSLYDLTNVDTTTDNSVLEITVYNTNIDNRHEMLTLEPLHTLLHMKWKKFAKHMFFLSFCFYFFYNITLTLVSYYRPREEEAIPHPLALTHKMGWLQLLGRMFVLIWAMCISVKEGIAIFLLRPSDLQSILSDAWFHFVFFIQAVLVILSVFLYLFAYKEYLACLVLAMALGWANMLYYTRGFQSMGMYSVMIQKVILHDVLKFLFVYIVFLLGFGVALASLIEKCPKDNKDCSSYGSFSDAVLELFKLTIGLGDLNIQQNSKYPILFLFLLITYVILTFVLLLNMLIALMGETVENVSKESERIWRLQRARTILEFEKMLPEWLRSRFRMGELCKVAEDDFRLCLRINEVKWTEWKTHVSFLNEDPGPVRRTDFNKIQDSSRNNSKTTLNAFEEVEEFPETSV

[2] = target: T1, Transient receptor potential cation channel subfamily V member 3 (Homo sapiens); experiment: Inhibition of human TRPV3 expressed in CHO cells assessed as reduction in 2-APB induced channel current at 10 uM at -80 mV by whole-cell patch clamp electrophysiology; assay type: cell-based
[3] = target: T1, Transient receptor potential cation channel subfamily V member 3 (Homo sapiens); experiment: Inhibition of human TRPV3 expressed in CHO cells assessed as reduction in 2-APB induced channel current at 10 uM at +80 mV by whole-cell patch clamp electrophysiology; assay type: cell-based
[4] = target: T1, Transient receptor potential cation channel subfamily V member 3 (Homo sapiens); experiment: Irreversible inhibition of human TRPV3 expressed in CHO cells assessed as reduction in 2-APB induced channel current at 10 uM at -80 mV incubated prior to compound washout followed by 2-APB addition by whole-cell patch clamp electrophysiology; assay type: cell-based
[5] = target: T1, Transient receptor potential cation channel subfamily V member 3 (Homo sapiens); experiment: Irreversible inhibition of human TRPV3 expressed in CHO cells assessed as reduction in 2-APB induced channel current at 10 uM at +80 mV incubated prior to compound washout followed by 2-APB addition by whole-cell patch clamp electrophysiology; assay type: cell-based
[6] = target: T2, Transient receptor potential cation channel subfamily V member 3 (Homo sapiens, UniProt Q8NET8); experiment: Inhibition of human TRPV3 expressed in CHO cells assessed as reduction in 2-APB induced channel current at -80 mV by whole-cell patch clamp electrophysiology; assay type: cell-based
T2 sequence (Q8NET8 whole entry): T1 sequence (whole entry)

[7] = target: T2, Transient receptor potential cation channel subfamily V member 3; experiment: Inhibition of human TRPV3 expressed in CHO cells assessed as reduction in 2-APB induced channel current at +80 mV by whole-cell patch clamp electrophysiology; assay type: cell-based
[8] = target: T1, Transient receptor potential cation channel subfamily V member 3 (Homo sapiens); experiment: Inhibition of human TRPV3 expressed in CHO cells assessed as reduction in 2-APB induced maximal channel current at voltage ramps from -80 to +80 mV by whole-cell patch clamp electrophysiology relative to control; assay type: cell-based
[9] = target: Transient receptor potential cation channel subfamily V member 1 (Rattus norvegicus) (UniProt O35433); experiment: Inhibition of rat TRPV1 expressed in CHO cells assessed as reduction in capsaicin-induced intracellular calcium flux at 20 uM measured for 60 mins by Fluo-4-AM dye based fluorescence assay; assay type: cell-based
Sequence of Transient receptor potential cation channel subfamily V member 1 (Rattus norvegicus) (O35433 whole entry): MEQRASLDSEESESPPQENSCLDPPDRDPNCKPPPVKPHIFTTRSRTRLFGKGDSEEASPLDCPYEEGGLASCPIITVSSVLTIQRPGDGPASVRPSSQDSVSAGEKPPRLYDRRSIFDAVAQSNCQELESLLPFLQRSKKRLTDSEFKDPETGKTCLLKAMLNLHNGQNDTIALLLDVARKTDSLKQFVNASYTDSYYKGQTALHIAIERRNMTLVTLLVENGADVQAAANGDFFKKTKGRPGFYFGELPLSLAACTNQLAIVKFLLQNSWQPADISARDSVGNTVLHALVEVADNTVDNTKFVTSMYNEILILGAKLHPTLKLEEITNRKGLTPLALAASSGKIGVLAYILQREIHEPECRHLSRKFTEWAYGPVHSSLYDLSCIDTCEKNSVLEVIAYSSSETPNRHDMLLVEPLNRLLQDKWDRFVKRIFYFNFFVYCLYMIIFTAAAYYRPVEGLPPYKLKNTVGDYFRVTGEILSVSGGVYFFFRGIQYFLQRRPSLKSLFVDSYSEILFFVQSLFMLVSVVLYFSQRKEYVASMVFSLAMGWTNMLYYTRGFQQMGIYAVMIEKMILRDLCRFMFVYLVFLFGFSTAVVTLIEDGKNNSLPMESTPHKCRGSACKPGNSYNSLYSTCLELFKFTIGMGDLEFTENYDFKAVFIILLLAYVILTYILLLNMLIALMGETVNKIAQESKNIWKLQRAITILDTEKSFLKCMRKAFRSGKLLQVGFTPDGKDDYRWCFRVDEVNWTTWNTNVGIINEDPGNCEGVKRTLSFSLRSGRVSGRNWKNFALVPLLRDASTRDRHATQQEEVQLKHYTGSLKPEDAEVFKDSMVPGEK

[10] = target: Transient receptor potential cation channel subfamily A member 1 (Rattus norvegicus) (UniProt Q6RI86); experiment: Inhibition of rat TRPA1 expressed in CHO cells assessed as reduction in AITC-induced intracellular calcium flux at 20 uM measured for 60 mins by Fluo-4-AM dye based fluorescence assay; assay type: cell-based
Sequence of Transient receptor potential cation channel subfamily A member 1 (Rattus norvegicus) (Q6RI86 whole entry): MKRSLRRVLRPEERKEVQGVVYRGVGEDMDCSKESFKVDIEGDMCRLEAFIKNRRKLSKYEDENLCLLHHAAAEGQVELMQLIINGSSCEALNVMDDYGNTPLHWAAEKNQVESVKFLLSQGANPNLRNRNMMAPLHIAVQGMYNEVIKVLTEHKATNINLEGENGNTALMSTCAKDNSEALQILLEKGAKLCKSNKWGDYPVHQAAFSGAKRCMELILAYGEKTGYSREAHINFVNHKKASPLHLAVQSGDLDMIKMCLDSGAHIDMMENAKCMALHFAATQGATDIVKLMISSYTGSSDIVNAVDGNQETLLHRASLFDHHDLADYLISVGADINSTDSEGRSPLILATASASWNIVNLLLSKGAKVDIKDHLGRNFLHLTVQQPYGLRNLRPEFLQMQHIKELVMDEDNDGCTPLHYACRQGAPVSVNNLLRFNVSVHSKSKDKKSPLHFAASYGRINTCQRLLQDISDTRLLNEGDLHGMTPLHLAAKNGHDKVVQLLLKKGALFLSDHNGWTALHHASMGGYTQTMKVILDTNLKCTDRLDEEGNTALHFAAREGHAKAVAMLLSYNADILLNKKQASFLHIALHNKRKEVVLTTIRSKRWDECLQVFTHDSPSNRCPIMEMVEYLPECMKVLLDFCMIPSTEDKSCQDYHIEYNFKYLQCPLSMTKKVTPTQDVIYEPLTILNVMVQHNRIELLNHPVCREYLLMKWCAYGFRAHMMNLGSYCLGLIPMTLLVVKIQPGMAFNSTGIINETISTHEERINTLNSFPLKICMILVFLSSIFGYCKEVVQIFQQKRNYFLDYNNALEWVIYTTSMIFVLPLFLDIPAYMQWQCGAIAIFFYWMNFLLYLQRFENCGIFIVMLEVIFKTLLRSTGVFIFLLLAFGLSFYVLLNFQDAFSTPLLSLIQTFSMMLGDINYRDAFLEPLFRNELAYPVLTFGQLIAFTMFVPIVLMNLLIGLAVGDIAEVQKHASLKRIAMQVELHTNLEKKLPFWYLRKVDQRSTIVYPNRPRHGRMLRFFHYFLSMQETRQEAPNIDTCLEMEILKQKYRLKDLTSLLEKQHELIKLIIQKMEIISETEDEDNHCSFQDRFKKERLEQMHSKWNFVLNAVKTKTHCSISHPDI

[11] = target: Transient receptor potential cation channel subfamily V member 4 (Homo sapiens) (UniProt Q9HBA0); experiment: Inhibition of human TRPV4 expressed in CHO cells assessed as reduction in GSK1016790A-induced intracellular calcium flux at 20 uM measured for 60 mins by Fluo-4-AM dye based fluorescence assay; assay type: cell-based
Sequence of Transient receptor potential cation channel subfamily V member 4 (Homo sapiens) (Q9HBA0 whole entry): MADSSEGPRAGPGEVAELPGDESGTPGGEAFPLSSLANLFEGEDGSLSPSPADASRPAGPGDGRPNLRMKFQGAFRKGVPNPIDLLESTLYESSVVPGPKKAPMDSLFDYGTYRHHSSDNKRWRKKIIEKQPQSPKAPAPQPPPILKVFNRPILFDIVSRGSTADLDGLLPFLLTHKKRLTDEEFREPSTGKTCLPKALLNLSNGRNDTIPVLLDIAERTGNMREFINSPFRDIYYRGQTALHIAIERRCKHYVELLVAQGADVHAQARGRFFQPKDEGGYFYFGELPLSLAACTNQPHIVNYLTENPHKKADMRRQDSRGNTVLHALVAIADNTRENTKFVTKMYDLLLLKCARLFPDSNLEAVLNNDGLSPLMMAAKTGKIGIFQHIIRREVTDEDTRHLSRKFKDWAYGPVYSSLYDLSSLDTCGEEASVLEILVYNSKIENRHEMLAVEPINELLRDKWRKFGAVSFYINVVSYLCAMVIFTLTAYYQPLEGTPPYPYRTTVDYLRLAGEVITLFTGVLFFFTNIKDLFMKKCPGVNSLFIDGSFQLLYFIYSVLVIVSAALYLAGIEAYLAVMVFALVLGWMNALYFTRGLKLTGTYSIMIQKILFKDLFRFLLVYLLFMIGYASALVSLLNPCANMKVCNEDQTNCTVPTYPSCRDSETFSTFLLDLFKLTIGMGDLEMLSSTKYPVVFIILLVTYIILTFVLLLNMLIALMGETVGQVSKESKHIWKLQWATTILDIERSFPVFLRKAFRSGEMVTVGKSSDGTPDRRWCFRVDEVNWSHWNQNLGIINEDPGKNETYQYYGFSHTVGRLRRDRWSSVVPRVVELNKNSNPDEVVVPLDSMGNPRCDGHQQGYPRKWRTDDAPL

[12] = target: T3, Acid-sensing ion channel 1 (Rattus norvegicus) (UniProt P55926); experiment: Inhibition of rat ASIC1a expressed in Xenopus Oocytes at 20 uM at holding potential of -50 mV by whole-cell electrophysiology; assay type: cell-based; details: Oocyte
T3 sequence (whole entry): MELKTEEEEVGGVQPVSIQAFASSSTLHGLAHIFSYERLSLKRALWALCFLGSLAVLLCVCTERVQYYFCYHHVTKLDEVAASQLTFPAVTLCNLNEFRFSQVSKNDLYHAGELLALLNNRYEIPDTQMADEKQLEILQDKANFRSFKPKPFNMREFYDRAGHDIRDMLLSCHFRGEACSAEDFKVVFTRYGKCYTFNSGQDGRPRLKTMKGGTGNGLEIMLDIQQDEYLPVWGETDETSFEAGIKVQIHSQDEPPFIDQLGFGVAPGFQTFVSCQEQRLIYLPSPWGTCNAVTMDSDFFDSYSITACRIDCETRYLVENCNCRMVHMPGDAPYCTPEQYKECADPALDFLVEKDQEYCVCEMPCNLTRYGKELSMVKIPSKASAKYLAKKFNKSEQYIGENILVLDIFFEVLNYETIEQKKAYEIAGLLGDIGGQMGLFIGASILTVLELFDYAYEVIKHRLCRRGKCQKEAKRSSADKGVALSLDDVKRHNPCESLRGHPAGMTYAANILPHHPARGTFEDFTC

[13] = target: T4, Acid-sensing ion channel 3 (Homo sapiens) (UniProt Q9UHC3); experiment: Inhibition of human ASIC3 expressed in Xenopus Oocytes at 20 uM at holding potential of -50 mV by whole-cell electrophysiology; assay type: cell-based; details: Oocyte
T4 sequence (whole entry): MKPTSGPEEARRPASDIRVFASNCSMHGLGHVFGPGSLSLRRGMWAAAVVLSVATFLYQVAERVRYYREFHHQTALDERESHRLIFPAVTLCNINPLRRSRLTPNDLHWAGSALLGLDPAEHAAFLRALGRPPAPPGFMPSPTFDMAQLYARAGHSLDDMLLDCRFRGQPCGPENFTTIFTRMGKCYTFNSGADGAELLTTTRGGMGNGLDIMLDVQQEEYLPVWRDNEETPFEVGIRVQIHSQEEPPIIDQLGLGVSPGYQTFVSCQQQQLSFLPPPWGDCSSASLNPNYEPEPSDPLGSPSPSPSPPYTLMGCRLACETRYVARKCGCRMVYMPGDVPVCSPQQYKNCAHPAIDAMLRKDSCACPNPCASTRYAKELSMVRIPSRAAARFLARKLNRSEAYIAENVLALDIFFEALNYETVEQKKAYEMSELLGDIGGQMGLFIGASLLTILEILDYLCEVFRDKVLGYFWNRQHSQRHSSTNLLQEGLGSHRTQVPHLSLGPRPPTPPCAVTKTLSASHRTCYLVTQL

[14] = target: T2, Transient receptor potential cation channel subfamily V member 3; experiment: Inhibition of TRPV3 in human HaCaT cells assessed as reduction in carvacrol-induced calcium influx measured for 60 mins by Fluo-4-AM dye based fluorescence assay; assay type: cell-based
[15] = target: T1, Transient receptor potential cation channel subfamily V member 3 (Homo sapiens); experiment: Inhibition of TRPV3 in human HaCaT cells assessed as reduction in carvacrol-induced calcium influx measured for 60 mins by Fluo-4-AM dye based fluorescence assay relative to control; assay type: cell-based
[16] = target: T1, Transient receptor potential cation channel subfamily V member 3 (Homo sapiens); experiment: Inhibition of human TRPV3 expressed in CHO cells assessed as reduction in 2-APB induced channel current at +80 mV by whole-cell patch clamp electrophysiology relative to control; assay type: cell-based
[17] = target: T1, Transient receptor potential cation channel subfamily V member 3 (Homo sapiens); experiment: Inhibition of human TRPV3 expressed in CHO cells assessed as reduction in 2-APB induced channel current at -80 mV by whole-cell patch clamp electrophysiology relative to control; assay type: cell-based
HaCaT = experiment: Cytotoxicity against human HaCaT cells assessed as reduction in cell viability measured after 24 hrs by MTT assay; assay type: toxicity, cell-based
[18] = Induction of pruritic reaction in ICR mouse assessed as number of scratching bouts at 30 uM, ID measured within 30 mins (reference value: 6 +/- 1 No_Unit); assay type: toxicity; details: other, 0.5 h
[19] = Induction of pruritic reaction in ICR mouse assessed as number of scratching bouts at 100 uM, ID measured within 30 mins (reference value: 6 +/- 1 No_Unit); assay type: toxicity; details: other, 0.5 h
Mus musculus [20] = species on record: Mus musculus; experiment: Antipruritic activity in carvacrol-induced scratching ICR mouse model assessed as number of scratching bouts at 30 uM, ID pretreated for 30 mins followed by carvacrol stimulation and measured for 30 mins (reference value: 174 +/- 7); assay type: functional; details: time 60 min, 1 h
Mus musculus [21] = species on record: Mus musculus; experiment: Antipruritic activity in carvacrol-induced scratching ICR mouse model assessed as number of scratching bouts at 100 uM, ID pretreated for 30 mins followed by carvacrol stimulation and measured for 30 mins (reference value: 174 +/- 7); assay type: functional; details: time 60 min, 1 h
Mus musculus [22] = species on record: Mus musculus; experiment: Antipruritic activity in histamine-induced scratching ICR mouse model assessed as number of scratching bouts at 0.3 uM, ID pretreated for 30 mins followed by histamine stimulation and measured for 30 mins (reference value: 123 +/- 6); assay type: functional; details: time 60 min, 1 h
Mus musculus [23] = species on record: Mus musculus; experiment: Antipruritic activity in histamine-induced scratching ICR mouse model assessed as number of scratching bouts at 3 uM, ID pretreated for 30 mins followed by histamine stimulation and measured for 30 mins (reference value: 123 +/- 6); assay type: functional; details: time 60 min, 1 h
Mus musculus [24] = species on record: Mus musculus; experiment: Antipruritic activity in histamine-induced scratching ICR mouse model assessed as number of scratching bouts at 30 uM, ID pretreated for 30 mins followed by histamine stimulation and measured for 30 mins (reference value: 123 +/- 6); assay type: functional; details: time 60 min, 1 h
Mus musculus [25] = species on record: Mus musculus; experiment: Antipruritic activity in histamine-induced scratching ICR mouse model assessed as inhibition of neck scratching behavior at 3 uM, ID pretreated for 30 mins followed by histamine stimulation and measured for 10 mins relative to control; assay type: functional; details: 40 min
Mus musculus [26] = species on record: Mus musculus; experiment: Antipruritic activity in histamine-induced scratching ICR mouse model assessed as inhibition of neck scratching behavior at 3 uM, ID pretreated for 30 mins followed by histamine stimulation and measured after 10 to 30 mins; assay type: functional, organism-based; details: time 40-60 min
Mus musculus [27] = species on record: Mus musculus; experiment: Antipruritic activity in carvacrol-induced scratching ICR mouse model assessed as inhibition of neck scratching behavior at 100 uM, ID pretreated for 30 mins followed by carvacrol stimulation and measured for 30 mins relative to control; assay type: functional; details: 1 h, time 60 min
Mus musculus [28] = species on record: Mus musculus; experiment: Antipruritic activity in carvacrol-induced scratching C57B/6 mouse model assessed as inhibition of neck scratching behavior at 10 uM, ID pretreated for 30 mins followed by carvacrol stimulation and measured for 30 mins relative to control; assay type: functional; details: C57B/6, 1 h, time 60 min
Mus musculus [29] = species on record: Mus musculus; experiment: Antipruritic activity in carvacrol-induced scratching C57B/6 mouse model assessed as inhibition of neck scratching behavior at 50 uM, ID pretreated for 30 mins followed by carvacrol stimulation and measured for 30 mins relative to control; assay type: functional; details: C57B/6, 1 h, time 60 min

inhibition [1]: Active | inhibition [2]: Active | inhibition [3]: Active | inhibition [4]: Active | inhibition [5]: Active | IC50 [6]: 560 nM | IC50 [7]: 800 nM | fold change (FC) [8]: 2 | inhibition [9]: inactive | inhibition [10]: inactive | inhibition [11]: inactive | inhibition [12]: inactive | inhibition [13]: inactive | IC50 [14]: 850 nM | Imax [15]: 43% | Imax [16]: 49% | Imax [17]: 50%
SMILES: C=C1CC[C@@H]2[C@](C)(CO)[C@H](O)CC[C@@]2(C)[C@@H]1/C=C/C1=CCOC1=O
Activity (HaCaT): Non-Toxic | Activity [18]: 8.1 | Activity [19]: 10.6 | Activity (Mus musculus [20]): 178 | Activity (Mus musculus [21]): 129 | Activity (Mus musculus [22]): 95 | Activity (Mus musculus [23]): 57 | Activity (Mus musculus [24]): 59 | inhibition in vivo at 3 µM (Mus musculus [25]): ~40% | inhibition (Mus musculus [26]): Active | inhibition in vivo at 100 µM (Mus musculus [27]): ~26%

SMILES: CCCCOc1ccc(C(=O)CCN2CCCCC2)cc1 [DYCLONINE]
inhibition in vivo at 10 µM (Mus musculus [28]): ~41% | inhibition in vivo at 50 µM (Mus musculus [29]): 100%
